# Experimental data: patent publication US20130189775A1, “MODULATION OF THE […] RECEPTOR mTOR TO INHIBIT STEM CELL DIFFERENTIATION INTO NEURONS” (priority 2011, published 2013)
# Entries after “also recorded” stand apart in the source; their conditions may differ.
# What was measured:
# ReN cells [1] = experiment: Epic label-free RWG biosensor receptor assay on ReN cells; format: cell-based, human; conditions: Epic single step assay; for agonist response profile, undifferentiated versus differentiated cells: ReN cells (FIG. 6); for agonist response of differentiated cells: ReN cells differentiated without rapamycin (FIG. 6)
# Procedure: The label-free biosensor assays for various receptors was done in the presence of various concentrations of a typical agonist using Corning Epic® system. Assay on undifferentiated cells was carried out simultaneously. […] Undifferentiated receptor profiles were similar to rapamycin treated cells indicating the blockage of differentiation by rapamycin.
# ReN Cells were treated with or without rapamycin (5 μM) for 6 days. Cells were washed with HBSS and loaded onto Epic instrument for a single step assay with various receptor agonists. Undifferentiated cells grown for 3-4 days (till confluency) and run of Epic instrument as described above.
# ReN cells [2] = experiment: ReN cell neural progenitor differentiation, phase contrast microscopy; format: cell-based, human; conditions: for block of neural progenitor differentiation by PI3-K / Akt inhibitors: ReN cells differentiated in presence of inhibitor for 6-7 days (FIG. 3, FIG. 4)
# Procedure: To evaluate the role of kinases in the differentiation of neural stem cells, we added kinase inhibitors from the BIOMOL kinase inhibitor library to the culture during the differentiation process. Kinase inhibitors were replaced on alternate days during media change. Cultures were grown for 6-7 days. We used phase contrast imaging and immunocytochemistry to understand the difference in the morphological differentiation.
# General procedure for neuronal stem cell culture on laminin surface: • 96 well CellBind™ treated plates were washed with 70% ethanol and kept ON in the hood • Next day morning, plates were washed twice with 1×PBS • Laminin (50 μl, 20 μg/ml) was added to the wells and incubated 37° C. incubator for 5 hrs. • Wells were washed with 1×PBS after incubation. • Cells were seeded at 20,000 cells/well • For undifferentiated cells, the cultures were grown for 9 days. Media was changed everyday with growth factor supplementation • For differentiated cells, the growth factor deprived media was added after next day after seeding and cells were grown further for 6 days with media changes every other day. • Rapamycin and other inhibitors were added to the cells when the media was changed to growth factor independent media. Media was maintained throughout the study and changed on alternate days. ReNcell NSC Maintenance Medium contains DMEM/F12 w/o HEPES, w/L-Glutamine, human serum albumin, human transferrin, putrescine dihydrochloride, human recombinant insulin, L-thyroxine, Tri-iodo-thyronine, progesterone, sodium selenite, heparin, corticosterone. […] The growth factors used were EGF (Epidermal growth factor) and bFGF (Basic fibroblast growth factor).
# Kinase inhibitors (1 μM) was added to the cells next day after seeding and replenished during media changes on alternate days. Phase contrast microscopy was done after 6 days as described below. […]
# After the experiment, the cells were fixed with 4% paraformaldehyde and washed thrice with 1×PBS. Cells were assessed using a Ziess Axiovert 200M inverted Brightfield/fluorescence microscope.
# [3] = test system: quiescent human epidermoid carcinoma A431; experiment: EGF-induced DMR response of quiescent A431 cells (optical biosensor); format: cell-based
# Text: The DMR signal mediated through a particular target is an integrated and quantifiable signal that is a sum of contributions from mass redistribution occurring at different distances away from the sensor surface. Because of the complex nature of cell signaling, the activation of distinct cell signaling mediated through different targets might result in similar overall DMR signal. However, because of the participation of unique sets of cellular targets for a specific signaling event, the modulation profiles mediated by a predetermined set of selective modulators might provide a means to classify the specificity of cell signaling being activated by a particular stimulus. Therefore, the DMR response can be treated as a unique and perfect readout for systems biology studies of living cells. […] The effect of various known inhibitors/drugs on the DMR response of quiescent A431 cells linked the cell response to mainly the Ras/mitogen-activated protein (MAP) kinase pathway, which primarily proceeds through MEK.
# Another biosensor output parameter can be the kinetics of any of the aspects of data output. For example, the rate at the completion of the phase transitions. For example, how fast are the phase transitions completed or how long does it take to complete data output. Another example of the kinetics that can be measured would be the length of time for which an overall phase of the data output takes. Another example is the total duration of time of one or both of the P- and N-DMR phases. Another example is the rate or time in which it takes to acquire the total amplitudes of one or both of the P- and N-DMR phases. Another example can be the transition time τ from the P- to N-DMR phase. The kinetics of both P-DMR and N-DMR events or phases can also be measured. For example, stimulation of human quiescent human epidermoid carcinoma A431 with epidermal growth factor (EGF) results in a dynamic response consisting of at least three phases. […]
compound,measurement,setting,value
NCCc1ccc(O)c(O)c1 [dopamine],"agonist response profile, undifferentiated versus differentiated cells",ReN cells [1],different profiles
NCCCC(=O)O [GABA],agonist response of differentiated cells,ReN cells [1],did not responds to these stimuli
O=c1[nH]c2ccccc2n1C1CCN(Cc2ccc(-c3[nH]c4cc5ncnc5cc4nc3-c3ccccc3)cc2)CC1 [A6730],block of neural progenitor differentiation by PI3-K / Akt inhibitors,ReN cells [2],did not block the neural progenitor differentiation
CNC[C@H](O)c1ccc(O)c(O)c1 [epinephrine],"agonist response profile, undifferentiated versus differentiated cells",ReN cells [1],different profiles
EGF: epidermal growth factor,EC50,"[3]; EGF stimulation, read-out: EC50 from amplitudes of the N-DMR signals",~1.45 nM
same,Kd,"[3]; EGF stimulation, read-out: Kd from one-phase decay constant κ of the N-DMR signal",5.76 nM
O=C(O)c1ccc2nc(-c3ccccc3)c(-c3ccccc3)nc2c1 [BML-257],block of neural progenitor differentiation by PI3-K / Akt inhibitors,ReN cells [2],did not block the neural progenitor differentiation
COc1cc2ncnc(Nc3cccc(Cl)c3)c2cc1OC [AG1478],suppression of EGF-induced DMR response,[3],fully suppressed
NCCc1c[nH]c2ccc(O)cc12 [serotonin],agonist response of differentiated cells,ReN cells [1],did not responds to these stimuli
Nc1ncnc2c1ncn2[C@@H]1O[C@H](CO)[C@@H](O)[C@H]1O [Adenosine],"agonist response profile, undifferentiated versus differentiated cells",ReN cells [1],different profiles
C[C@@H](N)[C@H]1CC[C@H](C(=O)Nc2ccncc2)CC1 [Y27632],block of neural progenitor cell differentiation by ROCK inhibitor,"ReN cells [2]; Y27632 1 μM, 6-7 days (FIG. 5)",had no effect on the differentiation process; also recorded: did not block neural progenitor cell differentiation
